{"source": "patent US20090203763A1", "about": "“SUBSTITUTED BENZHYDRYLETHERS” (AUSPEX PHARMACEUTICALS, INC., priority 2008, published 2009)", "key": {"[1]": {"conditions": "after both one-time and repeated (daily) administration; Verster et al. 2004; cited from earlier work"}, "[2]": {"assay": "In vitro human liver microsomal (HLM) stability assay", "assay_type": "in vitro ADME", "conditions": "human liver microsomes 1 mg per mL protein, 1 μM compound, about 37° C.; as compared to the non-isotopically enriched drug", "procedure": "Liver microsomal stability assays were conducted at 1 mg per mL liver microsome protein with an NADPH-generating system in 2% NaHCO3 (2.2 mM NADPH, 25.6 mM glucose 6-phosphate, 6 units per mL glucose 6-phosphate dehydrogenase and 3.3 mM MgCl2). Test compounds were prepared as solutions in 20% acetonitrile-water and added to the assay mixture (final assay concentration 1 μM) and incubated at about 37° C. Final concentration of acetonitrile in the assay should be <1%. Aliquots (50 μL) were taken out at times 0, 0.25, […], and 1 hours, and diluted with ice cold acetonitrile (200 μL) to stop the reactions. Samples were centrifuged at 12,000 RPM for about 10 min to precipitate proteins. Supernatants were transferred to micro centrifuge tubes and stored for LC/MS/MS analysis of the degradation half-life of the test compounds.\nResults of In Vitro Human Liver Microsomal (HLM) Stability Assay—Percent Change in Degradation Half-Life"}}}
{"smiles": "CN1CCC[C@@H]1CCO[C@](C)(c1ccccc1)c1ccc(Cl)cc1", "note": "[Clemastine, 2-[2-[1-(4-chlorophenyl)-1-phenyl-ethoxy]ethyl]-1-methyl-pyrrolidine]", "values": [{"measurement": "effect on driving performance", "setting": "[1]", "value": "significantly impair driving performance"}]}
{"smiles": "O=C(O)/C=C/C(=O)O.[2H]C([2H])(C[C@H]1CCCN1C)O[C@](C)(c1ccccc1)c1ccc(Cl)cc1", "note": "[Example 2, (R)-2-[2-[(R)-1-(4-Chlorophenyl)-1-phenylethoxy]ethyl-2,2-d2]-1-methylpyrrolidine fumarate]", "values": [{"measurement": "Percent Change in Degradation Half-Life, 0%-50%", "setting": "[2]", "value": "+ (0%-50%)"}]}
{"smiles": "O=C(O)/C=C/C(=O)O.[2H]C([2H])(O[C@](C)(c1ccccc1)c1ccc(Cl)cc1)C([2H])([2H])[C@H]1CCCN1C", "note": "[Example 3, (R)-2-[2-[(R)-1-(4-Chlorophenyl)-1-phenylethoxy]ethyl-2,2-d4]-1-methyl-pyrrolidine fumarate]", "values": [{"measurement": "Percent Change in Degradation Half-Life, 0%-50%", "setting": "[2]", "value": "+ (0%-50%)"}]}
{"smiles": "O=C(O)/C=C/C(=O)O.[2H]C([2H])([2H])N1CCC[C@@H]1CCO[C@](C)(c1ccccc1)c1ccc(Cl)cc1", "note": "[Example 4, (R)-2-[2-[(R)-1-(4-Chlorophenyl)-1-phenylethoxy]ethyl]-1-methyl-d3-pyrrolidine fumarate]", "values": [{"measurement": "Percent Change in Degradation Half-Life, −25%-0%", "setting": "[2]", "value": "+ (−25%-0%)"}]}
{"smiles": "O=C(O)/C=C/C(=O)O.[2H]C([2H])(C[C@H]1CCCN1C([2H])([2H])[2H])O[C@](C)(c1ccccc1)c1ccc(Cl)cc1", "note": "[Example 5, (R)-2-[2-[(R)-1-(4-Chlorophenyl)-1-phenylethoxy]ethyl-2,2-d2]-1-methyl-d3-pyrrolidine fumarate]", "values": [{"measurement": "Percent Change in Degradation Half-Life, −25%-0%", "setting": "[2]", "value": "+ (−25%-0%)"}]}
{"smiles": "O=C(O)/C=C/C(=O)O.[2H]C([2H])([2H])N1CCC[C@@H]1C([2H])([2H])C([2H])([2H])O[C@](C)(c1ccccc1)c1ccc(Cl)cc1", "note": "[Example 6, (R)-2-[2-[(R)-1-(4-Chlorophenyl)-1-phenylethoxy]ethyl-1,1,2,2-d4]-1-methyl-d3-pyrrolidine fumarate]", "values": [{"measurement": "Percent Change in Degradation Half-Life, 0%-50%", "setting": "[2]", "value": "+ (0%-50%)"}]}
